Results reported in ChEMBL document CHEMBL5108019, “Discovery of a novel Pleuromutilin derivative as anti-IPF lead compound via high-throughput assay” (Eur J Med Chem, 2022).
Calls of active or inactive are those of the source. The calls are words filed in the database; no cut-off is given here.

What was measured:
[1] = Tmax in Sprague-Dawley rat at 10 mg/kg, iv measured for 12 hrs by LC-MS/MS analysis; assay type: ADME, organism-based; settings: in vivo
[2] = tested on: Mus musculus; test: Antifibrotic activity against BLM-induced pulmonary fibrosis in C57BL/6 mouse model assessed as reduction in fibrosis region at 100 mg/kg, po administered once daily starting from day 7 post BLM treatment and measured on day 14 by hematoxylin-eosin and Masson trichrome staining based analysis relative to control; assay type: functional, organism-based; settings: time 14.0 day
[3] = tested on: Mus musculus; test: Antifibrotic activity against BLM-induced pulmonary fibrosis in C57BL/6 mouse model assessed as improvement in inspiratory resistance at 200 mg/kg, po administered once daily starting from day 7 post BLM treatment and measured on day 14 by plethysmography chamber based pulmonary function analysis; assay type: functional; settings: time 14 day
[4] = Tmax in Sprague-Dawley rat at 100 mg/kg, po measured for 18 hrs by LC-MS/MS analysis; assay type: ADME, organism-based; settings: in vivo
[5] = tested on: Pulmonary fibroblast; test: Inhibition of TGF-beta1 induced extracellular matrix development in mouse pulmonary fibroblast cells assessed as reduction in alpha-SMA mRNA expression at 10 to 40 uM incubated for 24 hrs by RT-PCR analysis; assay type: functional, cell-based; settings: dose 10-40 µM
[6] = tested on: Escherichia coli; test: Antibacterial activity against Escherichia coli assessed as bacterial growth inhibition incubated for 24 hrs; assay type: functional
[7] = Toxicity in C57BL/6 mouse assessed as animal survival at 500 mg/kg, po administered once every day for 30 days; assay type: organism-based; settings: in vivo, 720 h, time 30 day
[8] = tested on: Bacillus subtilis; test: Antibacterial activity against Bacillus subtilis assessed as bacterial growth inhibition incubated for 24 hrs; assay type: functional
[9] = Clearance in Sprague-Dawley rat at 100 mg/kg, po measured for 18 hrs by LC-MS/MS analysis; assay type: ADME, organism-based; settings: in vivo
[10] = Cmax in Sprague-Dawley rat at 10 mg/kg, iv measured for 12 hrs by LC-MS/MS analysis; assay type: ADME, organism-based; parameters: dose 10 mg/kg, time 12 hrs, route iv; settings: in vivo
[11] = Clearance in Sprague-Dawley rat at 10 mg/kg, iv measured for 12 hrs by LC-MS/MS analysis; assay type: ADME, organism-based; settings: in vivo
[12] = tested on: Mus musculus; test: Antifibrotic activity against BLM-induced pulmonary fibrosis in C57BL/6 mouse model assessed as improvement in expiratory resistance at 200 mg/kg, po administered once daily starting from day 7 post BLM treatment and measured on day 14 by plethysmography chamber based pulmonary function analysis; assay type: functional, organism-based; settings: time 14.0 day
[13] = tested on: Mus musculus; test: Antifibrotic activity against BLM-induced pulmonary fibrosis in C57BL/6 mouse model assessed as reduction in extracellular matrix generation at 200 mg/kg, po administered once daily starting from day 7 post BLM treatment and measured on day 14 by hydroxyproline method; assay type: functional, organism-based; settings: time 14.0 day
[14] = Half life in Sprague-Dawley rat at 10 mg/kg, iv measured for 12 hrs by LC-MS/MS analysis; assay type: ADME, organism-based; settings: in vivo
[15] = tested on: Mus musculus; test: Antifibrotic activity against BLM-induced pulmonary fibrosis in C57BL/6 mouse model assessed as reduction in collagen content in lungs at 100 to 200 mg/kg, po administered once daily starting from day 7 post BLM treatment and measured on day 14 by hydroxyproline method; assay type: functional, organism-based; settings: dose 100-200 mg/kg, time 14.0 day
[16] = tested on: Staphylococcus aureus; test: Antibacterial activity against Staphylococcus aureus assessed as bacterial growth inhibition incubated for 24 hrs; assay type: functional
[17] = tested on: Mus musculus; test: Antifibrotic activity against BLM-induced pulmonary fibrosis in C57BL/6 mouse model assessed as improvement in pulmonary alveolar structure damage at 100 to 200 mg/kg, po administered once daily starting from day 7 post BLM treatment and measured on day 14 by H and E staining based analysis; assay type: functional, organism-based; settings: dose 100-200 mg/kg, time 14.0 day
[18] = AUC (0 to t) in Sprague-Dawley rat at 100 mg/kg, po measured for 18 hrs by LC-MS/MS analysis; assay type: ADME, organism-based; parameters: dose 100 mg/kg, time 18 hrs, route po; settings: in vivo
[19] = Inhibition of TGF-beta1 induced cell proliferation in mouse MLg cells measured after 24 hrs by MTT assay; assay type: functional, cell-based
[20] = target: Mothers against decapentaplegic homolog 3 (Mus musculus) (UniProt Q8BUN5); test: Inhibition of TGF-beta1 induced Smad3 phosphorylation in mouse pulmonary fibroblast cells at 10 to 40 uM incubated for 0.5 hrs by Western blot analysis; assay type: cell-based; settings: dose 10-40 µM
[21] = target: Transforming growth factor beta-1 proprotein/Mothers against decapentaplegic homolog 3 (Mus musculus, UniProt P04202+Q8BUN5); test: Inhibition of TGF-beta1/Smad3 signalling in TGF-beta1 treated mouse NIH3T3 cells transfected with (CAGA)12-Lux reporter gene incubated for 18 hrs by luciferase based analysis; assay type: cell-based
[22] = Half life in Sprague-Dawley rat at 100 mg/kg, po measured for 18 hrs by LC-MS/MS analysis; assay type: ADME, organism-based; settings: in vivo
[23] = Toxicity in C57BL/6 mouse assessed as animal survival at 1000 mg/kg, IG administered as single dose; assay type: organism-based; settings: in vivo, po
[24] = tested on: Mus musculus; test: Antifibrotic activity against BLM-induced pulmonary fibrosis in C57BL/6 mouse model assessed as improvement in forced vital capacity at 200 mg/kg, po administered once daily starting from day 7 post BLM treatment and measured on day 14 by plethysmography chamber based pulmonary function analysis; assay type: functional; settings: time 14 day
[25] = tested on: Pulmonary fibroblast; test: Inhibition of TGF-beta1 induced cell stimulation in mouse pulmonary fibroblast cells assessed as reduction in alpha-SMA protein expression at 10 to 40 uM incubated for 24 hrs by Western blot analysis; assay type: functional, cell-based; settings: dose 10-40 µM
[26] = AUC (0 to t) in Sprague-Dawley rat at 10 mg/kg, iv measured for 12 hrs by LC-MS/MS analysis; assay type: ADME, organism-based; parameters: dose 10 mg/kg, time 12 hrs, route iv; settings: in vivo
[27] = Toxicity in C57BL/6 mouse assessed as animal survival at 500 mg/kg, IG administered once every day for 7 days; assay type: organism-based; settings: in vivo, po, 168 h, time 7 day
[28] = Cmax in Sprague-Dawley rat at 100 mg/kg, po measured for 18 hrs by LC-MS/MS analysis; assay type: ADME, organism-based; parameters: dose 100 mg/kg, time 18 hrs, route po; settings: in vivo
[29] = target: Transforming growth factor beta-1 proprotein/Mothers against decapentaplegic homolog 3 (Mus musculus) (UniProt P04202+Q8BUN5); test: Inhibition of TGF-beta1/Smad3 signalling in TGF-beta1 treated mouse NIH3T3 cells transfected with (CAGA)12-Lux reporter gene assessed as suppressive ratio at 10 uM incubated for 18 hrs by luciferase based analysis relative to control; assay type: cell-based; parameters: scale not given: the % may be the effect or the level left
[30] = Oral bioavailability in Sprague-Dawley rat at 100 mg/kg measured for 18 hrs by LC-MS/MS analysis; assay type: ADME, organism-based; settings: in vivo
[31] = Toxicity in C57BL/6 mouse assessed as toxic symptoms at 500 mg/kg, po administered once every day for 30 days; assay type: organism-based; settings: in vivo, 720 h, time 30 day
[32] = tested on: Mus musculus; test: Antifibrotic activity against BLM-induced pulmonary fibrosis in C57BL/6 mouse model assessed as reduction in fibrosis region at 200 mg/kg, po administered once daily starting from day 7 post BLM treatment and measured on day 14 by hematoxylin-eosin and Masson trichrome staining based analysis relative to control; assay type: functional, organism-based; settings: time 14.0 day
[33] = tested on: Mus musculus; test: Antifibrotic activity against BLM-induced pulmonary fibrosis in C57BL/6 mouse model assessed as improvement in dynamic compliance at 200 mg/kg, po administered once daily starting from day 7 post BLM treatment and measured on day 14 by plethysmography chamber based pulmonary function analysis; assay type: functional; settings: time 14 day

Chain of Transforming growth factor beta-1 proprotein/Mothers against decapentaplegic homolog 3 (P04202 279-390 limits assumed): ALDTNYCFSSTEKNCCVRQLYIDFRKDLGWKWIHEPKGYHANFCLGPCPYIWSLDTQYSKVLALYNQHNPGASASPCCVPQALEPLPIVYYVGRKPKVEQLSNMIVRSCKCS
Chain of Transforming growth factor beta-1 proprotein/Mothers against decapentaplegic homolog 3 (Q8BUN5 2-425 limits assumed): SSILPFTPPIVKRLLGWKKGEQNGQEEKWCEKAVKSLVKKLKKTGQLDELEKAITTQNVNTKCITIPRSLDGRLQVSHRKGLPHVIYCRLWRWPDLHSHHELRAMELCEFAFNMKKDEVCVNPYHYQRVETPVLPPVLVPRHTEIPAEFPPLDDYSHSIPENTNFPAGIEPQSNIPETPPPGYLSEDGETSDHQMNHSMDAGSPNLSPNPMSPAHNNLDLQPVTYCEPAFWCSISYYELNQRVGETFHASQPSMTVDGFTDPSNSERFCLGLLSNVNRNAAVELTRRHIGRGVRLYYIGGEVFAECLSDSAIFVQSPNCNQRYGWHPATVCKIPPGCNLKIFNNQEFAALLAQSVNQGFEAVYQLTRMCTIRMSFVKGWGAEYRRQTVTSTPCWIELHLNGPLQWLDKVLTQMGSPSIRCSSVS
Chain of Transforming growth factor beta-1 proprotein/Mothers against decapentaplegic homolog 3 (Mus musculus) (P04202 279-390 limits assumed): as the sequence (P04202 279-390 limits assumed) above
Chain of Transforming growth factor beta-1 proprotein/Mothers against decapentaplegic homolog 3 (Mus musculus) (Q8BUN5 2-425 partner limits assumed): as the sequence (Q8BUN5 2-425 limits assumed) above
Chain of Mothers against decapentaplegic homolog 3 (Mus musculus) (Q8BUN5 whole entry, looked up): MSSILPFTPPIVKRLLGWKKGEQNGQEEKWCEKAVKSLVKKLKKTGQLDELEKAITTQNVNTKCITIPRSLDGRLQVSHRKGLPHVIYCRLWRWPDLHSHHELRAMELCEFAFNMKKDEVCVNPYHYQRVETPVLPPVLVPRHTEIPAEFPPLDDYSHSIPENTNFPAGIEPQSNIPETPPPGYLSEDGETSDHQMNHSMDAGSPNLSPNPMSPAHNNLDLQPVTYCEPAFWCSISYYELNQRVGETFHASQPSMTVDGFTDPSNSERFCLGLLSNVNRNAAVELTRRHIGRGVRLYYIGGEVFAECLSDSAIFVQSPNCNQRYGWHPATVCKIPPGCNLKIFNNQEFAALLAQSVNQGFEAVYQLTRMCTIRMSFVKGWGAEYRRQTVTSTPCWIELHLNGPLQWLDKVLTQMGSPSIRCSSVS

Q: Which results are given for C=C[C@]1(C)C[C@@H](O)[C@]2(C)[C@H](C)CC[C@]3(C/C(=C\c4ccc(C(=O)NC5CCCCC5)cc4)C(=O)[C@H]32)[C@@H](C)[C@@H]1O?
A: Tmax [1]: 39.6 s; Activity [2]: Active; Activity [3]: 51.03%; Tmax [4]: 3.33 h; inhibition [5]: Active; MIC [6]: > 1000 µg/mL; Activity [7]: Non-Toxic; MIC [8]: > 1000 µg/mL; CL/F [9]: 7.62 mL/min; Cmax [10]: 2270 ng/mL; clearance [11]: 27.1 mL/min; Activity [12]: Active; Activity [13]: Active; half-life [14]: 0.488 h; Activity [15]: Active; MIC [16]: > 1000 µg/mL; Activity [17]: Active; AUC(0-t) at 18 h [18]: 17800 ng·h/mL; IC50 [19]: 160 µM; inhibition [20]: Active; IC50 [21]: 60.3 µM; half-life [22]: 9.21 h; Activity [23]: Non-Toxic; Activity [24]: 76.47%; inhibition [25]: Active; AUC(0-t) at 12 h [26]: 2900 ng·h/mL; Activity [27]: Non-Toxic; Cmax [28]: 2160 ng/mL; Activity [29]: 58.4%; bioavailability [30]: 61.2%; Activity [31]: Non-Toxic; Activity [32]: Active; Activity [33]: 38.85%
